# Reference: patent US8334238B2, “Multiparameter FACS assays to detect alterations in cellular parameters and to screen small molecule libraries” (Rigel, Inc., priority 1998, dated 2012)
# Tests used:
# MC-9 cells [1] = assay: Exocytic light scatter changes on the flow cytometer; assay type: cell-based
# Description: (§1) Experiments were carried out in modified tyrodes buffer (MD which consisted of NaCl (137 mM), KCl (2.7 mM), CaCl2 (1.8 mM), MgCl2 (1 mM), Glucose (5.6 mM), Hepes (20 mM, pH 7.4), and bovine serum albumin (0.1%). MC-9 cells were spun at 400×g and the media was aspirated. The cells were then washed with MT, respun/aspirated and taken up in MT at a density of 5×10^6 cells/ml. Cells were then treated with either DMSO or ionophore for 30 minutes (or the time was varied if a timecourse). The cells were then pelleted with the supernatant collected for enzymatic analysis; in some cases, the cells then processed for flow cytometry. All stimulations were carried out at 37° C. Stimulations of RBL-2H3 cells were carried out by washing the adherent cells one time in MT and then adding warmed MT (1 ml/10^6 cells) containing the stimulus. The cells were incubated at 37° C. for 30 minutes and the supernatant was harvested for further analysis. In some of the examples, (Examples 4-6), the plate bound cells were stained for annexin and then removed from the flask using No-Zyme (Collaborative Research, Inc.) for further processing for flow cytometry. For stimulation of RBL-2H3 cells with antigen crosslinking the cells were incubated overnight with IgE anti-DNP (Sigma Chemical Co.) in complete media at a concentration of 50 ng/ml. The following day they were washed one time in MT and stimulated as described above with the exception that bovine serum albumin coupled to DNP was used as the stimulus at 100 ng/ml.
# (§2) Cells processed for stimulation and staining were taken up in MT on ice and filtered through a 100 μm filter prior to cytometry. Cells were analyzed using a FACSCAN (Becton Dickinson Inc., laser line […]) or a Mo-Flo (Cytomation, Inc., laser lines 350 nM broadband (UV), 488 nm, and 647 nm) Cytometer. Cells were sorted, if desired using the Mo-Flo.
# (§3) The cells were prepared as described in Example 2, and light scatter properties were determined.
# RBL-2H3 cells [2] = assay: as above; assay type: cell-based; settings: 0.5 ug/ml, 0 and 10 minutes
# Description: as §1, §2, §3
# MC-9 cells [3] = assay: In situ enzymology (ELF-97 glucuronide, cell surface glucuronidase) by FACS; assay type: cell-based; settings: 0.5 μg/ml vs DMSO
# Description: MC-9 cells were stimulated for exocytosis as described above and then incubated in enyme substrate buffer (BSA free MT, pH 4.3-7.4 range) containing the substrate ELF-97 Glucuronide (250 NM) for 15 minutes at 37° C. The cells were washed one time in MT and then viewed in the microscope or on the flowcytometer. Further methodologies are described in the preceding examples.
# MC-9 cells [4] = assay: Population based exocytic enzyme activity assay on cell supernatant; settings: 2 μm, 30 minutes, vs DMSO
# Description: (§4) Experiments were carried out in modified tyrodes buffer (MD which consisted of NaCl (137 mM), KCl (2.7 mM), CaCl2 (1.8 mM), MgCl2 (1 mM), Glucose (5.6 mM), Hepes (20 mM, pH 7.4), and bovine serum albumin (0.1%). MC-9 cells were spun at 400×g and the media was aspirated. The cells were then washed with MT, respun/aspirated and taken up in MT at a density of 5×10^6 cells/ml. Cells were then treated with either DMSO or ionophore for 30 minutes (or the time was varied if a timecourse). The cells were then pelleted with the supernatant collected for enzymatic analysis; in some cases, the cells then processed for flow cytometry. All stimulations were carried out at 37° C. Stimulations of RBL-2H3 cells were carried out by washing the adherent cells one time in MT and then adding warmed MT (1 ml/10^6 cells) containing the stimulus. The cells were incubated at 37° C. for 30 minutes and the supernatant was harvested for further analysis. […]
# (§5) Enzyme assays were carried out on cell supernatants and pellets following exocytic stimulation. […] The plate was read on a fluorescence plate reader (Wallac, Inc.) using excitation 380 nm/emission 440 nm filters every 3 minutes for five times to obtain an enzymatic rate; analyses were carried out in triplicate.
# MC-9 cells [5] = assay: Styryl dye (FM 1-43 / FM 4-64) uptake exocytosis assay by FACS; assay type: cell-based; settings: 2 μM vs DMSO
# Description: as §4, with “analysis. In some of the examples, (Examples 4-6), the plate bound cells were stained for annexin and then removed from the flask using No-Zyme (Collaborative Research, Inc.) for further processing for flow cytometry.” for “analysis.”
# The cells were prepared as described above. […] The cells were then ready for analysis in the flow cytometer (see Example 2).
# MC-9 cells [6] = assay: Annexin-V staining exocytosis assay by FACS; assay type: cell-based
# Description: as §1
# Cells post exocytic stimulus were stained with annexin-PITC at a dilution of 1/100 in MT for 10 minutes at room temperature. The cells were then washed one time in MT, taken up in MT and viewed in the flow cytometer or microscope. For indirect labeling, annexin-biotin was added to the MT during the stimulation procedure at a dilution of 1/200. The cells were then pelleted in ice cold MT, spun, aspirated, and taken up in ice cold MT with streptavidin-APC at a dilution of 1/200 and kept on ice for 15 minutes. […]
# MC-9 cells [7] = assay: Propidium iodide staining (plasma membrane integrity) by FACS; assay type: cell-based; settings: 2 μm vs DMSO
# Description: as §1, with “The following day they were washed one time in MT and stimulated as described above with the exception that bovine serum albumin coupled to DNP was used as the stimulus at 100 ng/ml.” left out
# MC-9 cells [8] = assay: Lysotracker green release from granules by FACS; assay type: cell-based
# Description: Lysotracker dyes (blue, green, and red) were loaded into cells by diluting them to a final concentration of 1 μM in complete media and incubating the cells for 60 minutes at 37° C. in their presence. After loading, the cells were washed two times in MT and then were ready for further analysis or stimulation. Further methodologies are described in the preceding examples.
# RBL-2H3 cells [9] = assay: Population based exocytic enzyme activity assay on cell supernatant, antigen crosslinking; settings: RBL-2H3 sensitized 16 hours with varying IgE anti-DNP, stimulated with increasing BSA-DNP
# Description: as §4, §5
# RBL-2H3 cells [10] = assay: Annexin-V-FITC staining of exocytic granules, antigen crosslinking, microscopy; assay type: cell-based; settings: IgE-sensitized RBL-2H3 cells, 100 ng/ml vs MT buffer only
# Description: as §4, with “analysis. In some of the examples, (Examples 4-6), the plate bound cells were stained for annexin and then removed from the flask using No-Zyme (Collaborative Research, Inc.) for further processing for flow cytometry.” for “analysis.”
# Cells post stimulation or staining were mounted onto glass slides and coverslipped; these were directly visualized by brighffield and fluorescence microscopy on an inverted microscope (TE300, Nikon) using standard BFP, FITC, or TRITC filter sets. […]
# [11] = MC-9 cells, 0, 1, 2, 3 μM, four-parameter analysis
compound,measurement,setting,value
CNc1ccc2oc(C[C@H]3O[C@@]4(CC[C@H]3C)O[C@H]([C@H](C)C(=O)c3ccc[nH]3)[C@H](C)C[C@H]4C)nc2c1C(=O)O [A23187],light scatter changes (side scatter vs. forward scatter),"MC-9 cells [1]; MC-9 cells, 0.5 ug/ml, 0, 5 and 30 minutes",Time dependent scatter changes are evident
same,light scatter changes (side scatter vs. forward scatter),RBL-2H3 cells [2],Time dependent scatter changes are evident
same,"ELF-97 signal (cell surface enzymatic precipitate, in situ glucuronidase activity)",MC-9 cells [3],significant increase in signal
C[C@H](CCC(=O)O)C[C@H](C)C[C@H](C)C(=O)/C=C(\O)[C@H](C)C[C@H](C)C/C=C/[C@@H](C)[C@@H](O)[C@@H](C)[C@@H](O)C[C@@H]1CC[C@@](C)([C@H]2CC[C@@](C)([C@@H](C)O)O2)O1 [ionomycin],glucuronidase or hexosaminidase activity in the supernatant,MC-9 cells [4],Stimulated release of granule enzymatic activity is evident
same,forward scatter,MC-9 cells [1]; [11],increases
same,side scatter,MC-9 cells [1]; [11],decreases
same,forward and side scatter,"MC-9 cells [1]; MC-9 cells, 2 μM vs DMSO, 30 minute timepoint, data not shown",stimulation dependent changes in both parameters
same,styryl dye fluorescence intensity (FM 4-64 and FM 1-43),MC-9 cells [5]; channels 1 and 3,clear stimulation dependent increase
same,FM 1-43 signal,"MC-9 cells [5]; four-parameter analysis, data not shown",stimulation dependent increases in both signals
same,annexin-V-APC signal,MC-9 cells [6]; [11],becomes greater
same,annexin-V-APC signal,"MC-9 cells [6]; MC-9 cells, 2 μM vs DMSO, four-parameter analysis with FM 1-43, data not shown",stimulation dependent increases in both signals
same,annexin-V-FITC binding,"MC-9 cells [6]; MC-9 cells, 2 μm vs DMSO",significant increase
same,PI staining,MC-9 cells [7],no significant increase
same,"Lysotracker green fluorescence intensity, channel 1","MC-9 cells [8]; MC-9 cells loaded 1 hour, 2 μM vs DMSO",significant loss of signal
same,Lysotracker green signal,MC-9 cells [8]; [11],decreases
"BSA-DNP: bovine serum albumin coupled to DNP, antigen used as the stimulus",supernatant hexosaminidase activity,RBL-2H3 cells [9],dose response
same,annexin-V-FITC staining of cell surface granules,RBL-2H3 cells [10],Numerous cell surface granules are stained
